From patent US10842783B2, “Avibactam and carbapenems antibacterial agents” (THE JOHNS HOPKINS UNIVERSITY, priority 2017, dated 2020)
Entries after “also recorded” stand apart in the source; their conditions may differ.

Test system: M. abscessus ATCC 19977
Assay: Broth microdilution MIC of carbapenems with and without β-lactamase inhibitors, reference strain
Assay type: cell-based, Mycobacterium abscessus
Conditions: 7H9 broth, avibactam at fixed 4 μg/mL
Experimental: (§1) All strains were initially grown in 7H9 complete medium composed of Middlebrook 7H9 broth (Difco) supplemented with 0.5% glycerol, 10% oleic acid-albumin-dextrose-catalase and 0.05% Tween-80 at 37° C. with constant shaking. A standard broth microdilution method was used to determine MIC. Briefly, M. abscessus strains were grown as described above and these cultures, at exponential phase (A600 nm˜0.6-0.8), were used to inoculate 10^5 colony forming units (CFU) into each well of microtiter culture plates containing a carbapenem at two fold serial dilutions ranging from 256 to 0.25 μg/mL. An identical setup but with wells containing 4 μg/mL of avibactam was used to assess the effect of this agent on each carbapenem. Carbapenems studied were procured commercially from Sigma-Aldrich and include ertapenem, meropenem, imipenem, doripenem, biapenem, faropenem, tebipenem and panipenem. β-lactamase inhibitors sulbactam, tazobactam and avibactam were also procured from Sigma-Aldrich. In addition, to establish baseline antibacterial susceptibility for each strain we also determined MICs for drugs currently used to treat M. abscessus infections. They are linezolid, cefoxitin, kanamycin, ciprofloxacin, moxifloxacin, amikacin, tigecycline, imipenem, tobramycin, trimethoprim/sulfamethoxazole, and clarithromycin. M. abscessus growth was evaluated by visual inspection of pellets after 3 days of incubation (the exception being clarithromycin for which incubation was extended to 14 days) at 30° C. without shaking per CLSI guidelines. In addition to assessment in 7H9 complete medium, we also used cation adjusted Mueller-Hinton broth for MIC studies for the reference strain M. abscessus ATCC 19977. All experiments were repeated and the final data represent the average of two biological replicates.
We studied the utility of β-lactamase inhibitors sulbactam, tazobactam, and avibactam in restoring in vitro potencies of carbapenems against M. abscessus using the reference drug-susceptible strain ATCC 19977. We determined MICs of ertapenem, meropenem, imipenem, doripenem, biapenem, faropenem, tebipenem and panipenem alone or in the presence of the aforementioned […] β-lactamase inhibitors.
In the case of C[C@@H](O)[C@H]1C(=O)N2C(C(=O)O)=C(S[C@@H]3CN[C@H](CNS(N)(=O)=O)C3)[C@H](C)[C@H]12 [Doripenem, doripenem], the “Minimum inhibitory concentration, 7H9 + avibactam” value is reported as 2 to 4 µg/mL.
In the case of C[C@@H](O)[C@H]1C(=O)N2C(C(=O)O)=C(SC3CN(C4=NCCS4)C3)[C@H](C)[C@H]12 [Tebipenem, tebipenem], the “Minimum inhibitory concentration, 7H9 + avibactam” value is reported as 4 to 8 µg/mL.
With C[C@@H](O)[C@H]1C(=O)N2C(C(=O)[O-])=C(SC3Cn4cnc[n+]4C3)[C@H](C)[C@H]12 (some centres unmarked) [Biapenem, biapenem] the “Minimum inhibitory concentration, 7H9 + avibactam” value was 2 to 4 µg/mL.

Same assay, conditions: 7H9 broth, sulbactam at fixed 4 μg/mL
In the case of C[C@@H](O)[C@H]1C(=O)N2C(C(=O)O)=C(S[C@@H]3CN[C@H](CNS(N)(=O)=O)C3)[C@H](C)[C@H]12 [Doripenem, doripenem], the “Minimum inhibitory concentration, 7H9 + sulbactam” value is reported as 8 to 16 µg/mL.
With C[C@@H](O)[C@H]1C(=O)N2C(C(=O)O)=C(SC3CN(C4=NCCS4)C3)[C@H](C)[C@H]12 [Tebipenem, tebipenem] the “Minimum inhibitory concentration, 7H9 + sulbactam” value was over 64 µg/mL.
With C[C@@H](O)[C@H]1C(=O)N2C(C(=O)[O-])=C(SC3Cn4cnc[n+]4C3)[C@H](C)[C@H]12 (some centres unmarked) [Biapenem, biapenem] the “Minimum inhibitory concentration, 7H9 + sulbactam” value was 4 to 8 µg/mL.

Same assay, conditions: 7H9 broth, tazobactam at fixed 4 μg/mL
With C[C@@H](O)[C@H]1C(=O)N2C(C(=O)O)=C(S[C@@H]3CN[C@H](CNS(N)(=O)=O)C3)[C@H](C)[C@H]12 [Doripenem, doripenem] the “Minimum inhibitory concentration, 7H9 + tazobactam” value was 8 to 16 µg/mL.
With C[C@@H](O)[C@H]1C(=O)N2C(C(=O)O)=C(SC3CN(C4=NCCS4)C3)[C@H](C)[C@H]12 [Tebipenem, tebipenem] the “Minimum inhibitory concentration, 7H9 + tazobactam” value was over 64 µg/mL.
In the case of C[C@@H](O)[C@H]1C(=O)N2C(C(=O)[O-])=C(SC3Cn4cnc[n+]4C3)[C@H](C)[C@H]12 (some centres unmarked) [Biapenem, biapenem], the “Minimum inhibitory concentration, 7H9 + tazobactam” value is reported as 8 to 16 µg/mL.

Same assay, conditions: Mycobacteroides abscessus, ATCC19977; 7H9 broth, drug alone; read-out: Minimum inhibitory concentration, 7H9 broth
C[C@@H](O)[C@H]1C(=O)N2C(C(=O)O)=C(S[C@@H]3CN[C@H](CNS(N)(=O)=O)C3)[C@H](C)[C@H]12 [Doripenem, doripenem] showed an MIC of 8 to 16 µg/mL.
Work on C[C@@H](O)[C@H]1C(=O)N2C(C(=O)O)=C(SC3CN(C4=NCCS4)C3)[C@H](C)[C@H]12 [Tebipenem, tebipenem] yielded an MIC of 128 to 256 µg/mL.
Compound C[C@@H](O)[C@H]1C(=O)N2C(C(=O)[O-])=C(SC3Cn4cnc[n+]4C3)[C@H](C)[C@H]12 (some centres unmarked) [Biapenem, biapenem] has an MIC of 8 to 16 µg/mL.

Same assay, conditions: Mycobacteroides abscessus, ATCC19977; carbapenem alone, single values given; read-out: MIC of carbapenems against the drug sensitive control strain
C[C@@H](O)[C@H]1C(=O)N2C(C(=O)O)=C(S[C@@H]3CN[C@H](CNS(N)(=O)=O)C3)[C@H](C)[C@H]12 [Doripenem, doripenem] showed an MIC of 16 µg/mL.
With C[C@@H](O)[C@H]1C(=O)N2C(C(=O)O)=C(SC3CN(C4=NCCS4)C3)[C@H](C)[C@H]12 [Tebipenem, tebipenem] the MIC was 256 µg/mL.
Compound C[C@@H](O)[C@H]1C(=O)N2C(C(=O)[O-])=C(SC3Cn4cnc[n+]4C3)[C@H](C)[C@H]12 (some centres unmarked) [Biapenem, biapenem] has an MIC of 16 µg/mL.

Same assay, conditions: Mycobacteroides abscessus, ATCC19977; cation-adjusted Mueller-Hinton broth, drug alone; read-out: Minimum inhibitory concentration, CAMHB only
Work on C[C@@H](O)[C@H]1C(=O)N2C(C(=O)O)=C(S[C@@H]3CN[C@H](CNS(N)(=O)=O)C3)[C@H](C)[C@H]12 [Doripenem, doripenem] yielded an MIC of 16 to 32 µg/mL.
C[C@@H](O)[C@H]1C(=O)N2C(C(=O)O)=C(SC3CN(C4=NCCS4)C3)[C@H](C)[C@H]12 [Tebipenem, tebipenem] showed an MIC of 128 to 256 µg/mL.
Work on C[C@@H](O)[C@H]1C(=O)N2C(C(=O)[O-])=C(SC3Cn4cnc[n+]4C3)[C@H](C)[C@H]12 (some centres unmarked) [Biapenem, biapenem] yielded an MIC of 16 to 32 µg/mL.

Same assay, conditions: cation-adjusted Mueller-Hinton broth, avibactam at fixed 4 μg/mL
With C[C@@H](O)[C@H]1C(=O)N2C(C(=O)O)=C(S[C@@H]3CN[C@H](CNS(N)(=O)=O)C3)[C@H](C)[C@H]12 [Doripenem, doripenem] the “Minimum inhibitory concentration, CAMHB + avibactam” value was 4 to 8 µg/mL.
In the case of C[C@@H](O)[C@H]1C(=O)N2C(C(=O)O)=C(SC3CN(C4=NCCS4)C3)[C@H](C)[C@H]12 [Tebipenem, tebipenem], the “Minimum inhibitory concentration, CAMHB + avibactam” value is reported as 8 to 16 µg/mL.
With C[C@@H](O)[C@H]1C(=O)N2C(C(=O)[O-])=C(SC3Cn4cnc[n+]4C3)[C@H](C)[C@H]12 (some centres unmarked) [Biapenem, biapenem] the “Minimum inhibitory concentration, CAMHB + avibactam” value was 8 to 16 µg/mL.

Test system: not given
Assay: not given
Conditions: in vivo; cited from earlier work
In the case of C[C@@H](O)[C@H]1C(=O)N2C(C(=O)O)=C(SC3CN(C4=NCCS4)C3)[C@H](C)[C@H]12 [Tebipenem, tebipenem], the “Average peak plasma concentration” value is listed as about 8 µg/mL and the Half-life is listed as 1 h.

Test system: M. abscessus clinical strains
Assay: Broth microdilution MIC of carbapenems with and without avibactam, twenty eight clinical isolates
Assay type: cell-based, Mycobacterium abscessus
Conditions: clinical strains, avibactam 4 μg/mL
Excerpt: Twenty eight unique clinical isolates of M. abscessus were used in this study. These strains were obtained de-identified from the archive of the clinical microbiology laboratory of the Johns Hopkins University Hospital per institutional ethical guidelines. They were isolated over a 10 year period, from 2005-2015, from patients that were temporally and geographically unrelated. No two isolates are from the same patient. Those displaying a high level of resistance to antibacterials used for M. abscessus infection were selected for this study. All strains obtained prior to 2014 were identified to the M. abscessus complex level using a variety of methods including 16S rDNA sequencing in conjunction with selected biochemical testing such as sodium citrate. More recent isolates (those isolated after 2014) were identified using MALDI ToF mass spectrometry in which a Bruker MicroFlex LT (MicroFlex LT) mass spectrometer and Bruker Biotyper software and existing database (version 2.0, Bruker) were employed. Sub-speciation within the M. abscessus complex, which helps to distinguish between M. abscessus sensu stricto, M. massiliense, and M. bolletii, was not done as this is not per the current standard of care at the Johns Hopkins Clinical Mycobacteriology Laboratory. Distinguishing between M. abscessus sensu stricto and M. massiliense is most often performed to guide therapy since M. massiliense is known to have a non-funtional erm gene and is therefore susceptible to macrolides. However, due to the high number of macrolide resistant M. abscessus complex isolates recovered at Johns Hopkins, most patient isolates are subjected to drug susceptibility testing, making speciation within the complex of lesser importance. Thus, the proportion of each subspecies within the M. abscessus complex for the Johns Hopkins strain collection is not known. M. abscessus ATCC 19977 was included as a reference drug-sensitive strain.
as §1
In the case of C[C@@H](O)[C@H]1C(=O)N2C(C(=O)O)=C(SC3CN(C4=NCCS4)C3)[C@H](C)[C@H]12 [Tebipenem, tebipenem], the “Effect of avibactam on the MIC of the carbapenem, in words” value is reported as “levels that are therapeutically relevant; also recorded: largest reduction in MIC”.

Same assay, conditions: twenty eight clinical strains, avibactam 4 μg/mL
For C[C@@H](O)[C@H]1C(=O)N2C(C(=O)O)=C(S[C@@H]3CN[C@H](CNS(N)(=O)=O)C3)[C@H](C)[C@H]12 [Doripenem, doripenem], the “Average reduction in MICs of the carbapenems in combination with avibactam” value (“Average reduction in MICs” below) was 6 fold.
In the case of C[C@@H](O)[C@H]1C(=O)N2C(C(=O)O)=C(SC3CN(C4=NCCS4)C3)[C@H](C)[C@H]12 [Tebipenem, tebipenem], the “Average reduction in MICs” value is reported as over 38 fold.
For C[C@@H](O)[C@H]1C(=O)N2C(C(=O)[O-])=C(SC3Cn4cnc[n+]4C3)[C@H](C)[C@H]12 (some centres unmarked) [Biapenem, biapenem], the “Average reduction in MICs” value was 5 fold.

Same assay, conditions: with avibactam, against M. abscessus
In the case of C[C@@H](O)[C@H]1C(=O)N2C(C(=O)O)=C(SC3CN(C4=NCCS4)C3)[C@H](C)[C@H]12 [Tebipenem, tebipenem], the “Fold decrease of MIC by avibactam” value is reported as 32-64 fold and the “MIC of carbapenem as reduced by avibactam” value is reported as 4 to 8 µg/mL.
